Laboratory results taken from patent US20240327359A1, “3-ISOXAZOLIDINONE COMPOUND, PREPARATION METHOD, HERBICIDAL COMPOSITION AND APPLICATION THEREOF” (QINGDAO KINGAGROOT CHEMICAL COMPOUND CO., LTD., priority 2021, published 2024).

Columns and labels:
Format in all cases: in vivo
Digitaria sanguinalis = assay: Weeding effect in post-emergence stage; conditions: 720 g a.i./ha, 3 weeks after application
Source text: (§1) The activity level criteria for plant damage (i.e., growth control rate) are as follows:
(§2) The above growth control rates are fresh weight control rates.
(§3) Monocotyledonous and dicotyledonous weed seeds (Descurainia sophia, Capsella bursa-pastoris, Abutilon theophrasti, Galium aparine, Stellaria media, Lithospermum arvense, Rorippa indica, Alopecurus aequalis, Alopecurus japonicus, Eleusine indica, Beckmannia syzigachne, Sclerochloa dura, Phleum paniculatum, Veronica didyma, Bromus japonicus, Aegilops tauschii, Phalaris arundinacea, Amaranthus retroflexus, Chenopodiaceae, Commelina communis, Sonchus arvensis, Convolvulus arvensis, Cirsium setosum, Solanumnigrum, Acalypha australis, Digitaria sanguinalis, Echinochloa crusgalli, Setaria viridis, Setaria glauca, Leptochloa chinensis, Monochoria vaginalis, Sagittaria trifolia, Scirpus juncoides, Cyperus rotundus, Cyperus iria, Cyperus difformis, Fimbristylis, Portulaca oleracea, Xanthium sibiricum, Pharbitis nil, Conyza Canadensis, etc.) and major crop seeds (wheat, corn, rice, soybean, cotton, oilseed rape, millet, sorghum, potato, sesame, ricinus, etc.) were placed in plastic pots filled with soil, then covered with 0.5-2 cm of soil, allowed to grow in a good greenhouse environment. Two weeks after sowing, the test plants were treated in the 2-3 leaf stage. The tested compounds of the present invention were respectively dissolved in acetone, then added with Tween 80 and 1.5 liter/ha of emulsifiable concentrate of methyl oleate as synergist, diluted with a certain amount of water to obtain a solution of a certain concentration, and sprayed by a spray tower onto the plants. After the application, the plants were cultured for 3 weeks in the greenhouse, and then the experimental results of the weeding were recorded. The doses of the used compounds were 45, 90, 180, 360, 720 g a.i./ha, and the averages were obtained from three replicates.

Abutilon theophrasti = assay: Weeding effect in post-emergence stage; conditions: 720 g a.i./ha, 3 weeks after application
Source text: as §1, §2, §3

Alopecurus japonicus = assay: Weeding effect in post-emergence stage; conditions: 720 g a.i./ha, 3 weeks after application
Source text: as §1, §2, §3

Leptochloa chinensis [1] = assay: Weeding effect in post-emergence stage; conditions: 720 g a.i./ha, 3 weeks after application
Source text: as §1, §2, §3

weeds = assay: Activity test of the compositions, soil sealing treatment; conditions: Echinochloa crus-galli, 504 h, Echinochloa crusgalli, soil treatment (S), 21 days, read-out: Control effect (%) of B applied alone (B)
Procedure: (§4) The desired active ingredient B was purchased from a reagent company or synthesized by a known method. The technical materials were all dissolved in acetone and diluted with an aqueous solution containing 0.10% emulsifier Tween-80 which were to be used immediately after dilution.
Weeds are cultivated in a controllable sunlight greenhouse at 20 to 30° C., in natural light, and with relative humidity of 57% to 72%. […] The test soil was filled quantitatively to ¾ of the pots and then watered from the bottom of the pots to completely wet the soil to saturation. The test weed seeds were accelerated to just germinate, and then evenly and quantitatively sowed on the surface, then covered with 0.5-1 cm soil according to the seed size, and ready for use 72 hours after sowing.
(§5) Each treatment was repeated 4 times. Four pots with 20 weed seeds per pot were treated each time.
The well-sowed test materials were evenly placed on a platform with an area of 0.5 m^2, and solution of agents was sprayed on the soil by the 3WP-2000-type walking spray tower at a dosage of 450 kg/ha and at a spray pressure of 0.3 MPa. After all the solution was sprayed, the valve was closed. After 30 seconds, the door of the spray tower was opened, and the nutritional bowl was taken out. Then the valve was opened, and the spray tube was cleaned by spraying 50 ml of water.
(§6) A method for investigating absolute numbers was employed. Whole seedlings of survival weeds were cut off with a blade along the soil surface, and the fresh weight of the weeds was weighed with an analytical balance. For dead weeds, the fresh weight thereof was zero.
(§7) The investigation was performed 21 days after the treatment for only once in total.

Descurainia sophia = assay: Weeding effect in pre-emergence stage; conditions: 2 weeks
Source text: as §1, §2
(§8) Monocotyledonous and dicotyledonous weed seeds (Descurainia sophia, Capsella bursa-pastoris, Abutilon theophrasti, Galium aparine, Stellaria media, Lithospermum arvense, Rorippa indica, Alopecurus aequalis, Alopecurus japonicus, Eleusine indica, Beckmannia syzigachne, Sclerochloa dura, Phleum paniculatum, Veronica didyma, Bromus japonicus, Aegilops tauschii, Phalaris arundinacea, Amaranthus retroflexus, Chenopodiaceae, Commelina communis, Sonchus arvensis, Convolvulus arvensis, Cirsium setosum, Solanumnigrum, Acalypha australis, Digitaria sanguinalis, Echinochloa crusgalli, Setaria viridis, Setaria glauca, Leptochloa chinensis, Monochoria vaginalis, Sagittaria trifolia, Scirpus juncoides, Cyperus rotundus, Cyperus iria, Cyperus difformis, Fimbristylis, Portulaca oleracea, Xanthium sibiricum, Pharbitis nil, Conyza Canadensis, etc.) and major crop seeds (wheat, corn, rice, soybean, cotton, oilseed rape, millet, sorghum, potato, sesame, ricinus, etc.) were placed in plastic pots filled with soil, then covered with 0.5-2 cm of soil, allowed to grow in a good greenhouse environment. The test plants were treated on the day of sowing. The tested compounds of the present invention were respectively dissolved in acetone, then added with Tween 80, diluted with a certain amount of water to obtain a solution of a certain concentration, and sprayed by a spray tower onto the plants. After the application, the plants were cultured for 2 weeks in the greenhouse, and then the experimental results of the weeding were recorded. The doses of the used compounds were 3, 6, 12, 24, 48 g ai./mu (1 mu=1/15 ha), and the averages were obtained from three replicates.

Lolium perenne = assay: Weeding effect in pre-emergence stage; conditions: 2 weeks
Source text: as §1, §2, §8

Echinochloa crusgalli = assay: Weeding effect in pre-emergence stage; conditions: 2 weeks
Source text: as §1, §2, §8

Veronica didyma = assay: Weeding effect in pre-emergence stage; conditions: 2 weeks
Source text: as §1, §2, §8

Leptochloa chinensis [2] = assay: Weeding effect in pre-emergence stage; conditions: 2 weeks
Source text: as §1, §2, §8

Cirsium setosum = assay: Activity test of the compositions, post-emergence treatment by foliage spray; conditions: foliage (F)
Procedure: as §4
Weeds were cultivated by a pot culture method. […] Weed seeds with plump and uniform grains were selected, soaked in lukewarm water at 25° C. for 6 hours, and germinated in a 28° C. biochemical incubator (in darkness). The weed seeds that had just germinated were evenly placed on the surface of the soil and then covered with 0.5-1 cm soil according to the sizes of seeds.
The culture was carried out in a controllable sunlight greenhouse at 20 to 30° C., in natural light, and with relative humidity of 57% to 72%.
as §5
The agents were used for only once in total in the experiment. In the stage of 1.5-2 leaves, the weeds were thinned out to maintain 10 weeds per pot. Ten weeds were kept in each treatment, then continued to be cultured until Echinochloa crus-galli var. zelayensis reached the stage of 2-3 leaves, Cirsium setosum reached the stage of 5-6 leaves, Galium aparine reached the stage of 3-4 whorl leaves, Amaranthus retroflexus reached the stage of 3-5 leaves, Echinochloa crusgalli, Lolium multiflorum and Digitaria sanguinalis reached the stage of 3 leaves with one leaf not fully expanding for further treatment.
The well-cultured test materials were evenly placed on a platform with an area of 0.5 m^2, and solution of agents was sprayed on the stems and leaves thereof by the 3WP-2000-type walking spray tower at a dosage of 450 kg/ha and at a spray pressure of 0.3 MPa. After all the solution was sprayed, the valve was closed. After 30 seconds, the door of the spray tower was opened, and the nutritional bowl was taken out. Then the valve was opened, and the spray tube was cleaned by spraying 50 ml of water. After the treatment, the weeds were routinely cultured in a greenhouse.
as §6, §7

CC1(C)CON(Cc2ccccc2Cl)C1=O [Control compound B, clomazone]
weeding effect in post-emergence stage, activity level (growth control rate) (Digitaria sanguinalis): 3 (Level 3: growth control rate is greater than or equal to 40% and less than 60%)
weeding effect in post-emergence stage, activity level (growth control rate) (Abutilon theophrasti): 3 (Level 3: growth control rate is greater than or equal to 40% and less than 60%)
weeding effect in post-emergence stage, activity level (growth control rate) (Alopecurus japonicus): 4 (Level 4: growth control rate is greater than or equal to 60% and less than 85%)
weeding effect in post-emergence stage, activity level (growth control rate) (Leptochloa chinensis [1]): 4 (Level 4: growth control rate is greater than or equal to 60% and less than 85%)
pest or weed control at 30 g/ha (weeds; B at 2 g a.i./mu): 33.2%
pest or weed control at 60 g/ha (weeds; B at 4 g a.i./mu): 46.8%
weeding effect in pre-emergence stage, activity level (growth control rate) (Descurainia sophia; 3 g a.i./mu): 2 (Level 2: growth control rate is greater than or equal to 15% and less than 30%)
weeding effect in pre-emergence stage, activity level (growth control rate) (Descurainia sophia; 6 g a.i./mu): 3 (Level 3: growth control rate is greater than or equal to 30% and less than 40%)
weeding effect in pre-emergence stage, activity level (growth control rate) (Descurainia sophia; 12 g a.i./mu): 7 (Level 7: growth control rate is greater than or equal to 70% and less than 80%)
weeding effect in pre-emergence stage, activity level (growth control rate) (Descurainia sophia; 24 g a.i./mu): 7 (Level 7: growth control rate is greater than or equal to 70% and less than 80%)
weeding effect in pre-emergence stage, activity level (growth control rate) (Lolium perenne; 6 g a.i./mu): 1 (Level 1: growth control rate is greater than 0% and less than 15%)
weeding effect in pre-emergence stage, activity level (growth control rate) (Lolium perenne; 24 g a.i./mu): 9
weeding effect in pre-emergence stage, activity level (growth control rate) (Echinochloa crusgalli; 3 g a.i./mu): 8 (Level 8: growth control rate is greater than or equal to 80% and less than 100%)
weeding effect in pre-emergence stage, activity level (growth control rate) (Echinochloa crusgalli; 6 g a.i./mu): 9
weeding effect in pre-emergence stage, activity level (growth control rate) (Echinochloa crusgalli; 12 g a.i./mu): 9
weeding effect in pre-emergence stage, activity level (growth control rate) (Echinochloa crusgalli; 24 g a.i./mu): 9
weeding effect in pre-emergence stage, activity level (growth control rate) (Veronica didyma; 6 g a.i./mu): 8 (Level 8: growth control rate is greater than or equal to 80% and less than 100%)
weeding effect in pre-emergence stage, activity level (growth control rate) (Veronica didyma; 12 g a.i./mu): 9
weeding effect in pre-emergence stage, activity level (growth control rate) (Veronica didyma; 24 g a.i./mu): 9
weeding effect in pre-emergence stage, activity level (growth control rate) (Leptochloa chinensis [2]; 3 g a.i./mu): 0
weeding effect in pre-emergence stage, activity level (growth control rate) (Leptochloa chinensis [2]; 6 g a.i./mu): 4 (Level 4: growth control rate is greater than or equal to 40% and less than 50%)
weeding effect in pre-emergence stage, activity level (growth control rate) (Leptochloa chinensis [2]; 12 g a.i./mu): 9
weeding effect in pre-emergence stage, activity level (growth control rate) (Leptochloa chinensis [2]; 24 g a.i./mu): 9

CC(C)N1C(=O)c2ccccc2NS1(=O)=O [bentazon]
Control effect (%) of B applied alone (B) (Cirsium setosum; B 8 g a.i./mu): 12.4%
Control effect (%) of B applied alone (B) (Cirsium setosum; B 16 g a.i./mu): 25.8%
